The text below walks through data of patent US20130203662A1, “Mini-Hepcidin Peptides and Methods of Using Thereof” (priority 2008, published 2013).

Square brackets hold non-standard residues; d marks the D form. Ends that are not written are not given here. Peptide text beside a SMILES is read from it. * marks the point of attachment. Bip = N[C@@H](Cc1ccc(-c2ccccc2)cc1)C(=O)O; Oic = O=C(O)[C@@H]1C[C@@H]2CCCC[C@@H]2N1; Dip = N[C@H](C(=O)O)C(c1ccccc1)c1ccccc1; 1Nal = N[C@@H](Cc1cccc2ccccc12)C(=O)O; β3hF = N[C@H](CC(=O)O)Cc1ccccc1; tBu = CC(C)(C)* Bounds are passed on as bounds.

The first assay addresses T1, ferroportin fused to green fluorescent protein (ECR293/Fpn-GFP cells) (Mus musculus, UniProt Q9JHI9).
T1 sequence (Q9JHI9 1-570): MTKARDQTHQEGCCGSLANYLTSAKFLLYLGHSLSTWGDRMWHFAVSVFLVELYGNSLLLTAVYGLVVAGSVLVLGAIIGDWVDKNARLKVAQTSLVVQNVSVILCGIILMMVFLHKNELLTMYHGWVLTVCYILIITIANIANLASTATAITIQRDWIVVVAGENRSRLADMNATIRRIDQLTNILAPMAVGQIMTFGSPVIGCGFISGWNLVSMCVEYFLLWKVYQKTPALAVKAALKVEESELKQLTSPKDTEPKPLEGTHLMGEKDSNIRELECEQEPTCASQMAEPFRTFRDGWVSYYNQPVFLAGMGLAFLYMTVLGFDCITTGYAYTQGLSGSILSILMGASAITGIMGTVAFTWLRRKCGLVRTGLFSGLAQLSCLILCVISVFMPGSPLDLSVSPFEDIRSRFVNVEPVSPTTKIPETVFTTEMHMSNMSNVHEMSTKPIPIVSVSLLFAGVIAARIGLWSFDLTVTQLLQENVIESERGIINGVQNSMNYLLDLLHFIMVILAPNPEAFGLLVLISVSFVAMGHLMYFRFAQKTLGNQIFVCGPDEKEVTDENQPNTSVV
In words: Flow cytometry of ferroportin-GFP internalization and degradation in ECR293/Fpn-GFP cells. In kind it is cell-based.
Conditions: not given
The protocol: In vitro activity may be measured by the dose-dependent loss of fluorescence of cells engineered to display ferroportin fused to green fluorescent protein as in Nemeth et al. (2006) Blood 107:328-33. […]
FLOW CYTOMETRY. The activity of peptides of the present invention was measured by flow cytometry as previously described. See Nemeth et al. (2006) Blood 107:328-333, which is herein incorporated by reference. ECR293/Fpn-GFP, a cell line stably transfected with a ponasterone-inducible ferroportin construct tagged at the C-terminus with green fluorescent protein was used. See Nemeth et al. (2004) Science 306:2090-2093, which is herein incorporated by reference. Briefly, the cells were plated on poly-D-lysine coated plates in the presence of 20 μM FAC, with or without 10 μM ponasterone. After 24 hours, ponasterone was washed off, and cells were treated with peptides for 24 hours. Cells were then trypsinized and resuspended at 1×10^6 cells/ml, and the intensity of green fluorescence was analyzed by flow cytometry. […] Cells not induced with ponasterone to express Fpn-GFP were used to establish a gate to exclude background fluorescence. Cells induced with ponasterone, but not treated with any peptides, were used as the positive control. Each peptide was tested over the range of concentrations (0, 0.01, 0.03, 0.1, 0.3, 1, 3 and 10 μM). Each peptide treatment was repeated independently 3 to 6 times.
For orientation: A flow cytometer gives signals particle by particle.
What is called EC50 is the midpoint of the concentration-response curve. The low end stands for an effect from little substance, the high end for a need for much substance. Consider `CC[C@H](C)[C@H](NC(=O)[C@H](CS)NC(=O)[C@@H](NC(=O)[C@@H]1CCCN1C(=O)[C@@H](NC(=O)[C@@H](N)CC(=O)O)C(c1ccccc1)c1ccccc1)[C@@H](C)CC)C(=O)N[C@H](C(N)=O)C(c1ccccc1)c1ccccc1` [Pr41] (H-D[Dip]PICI[Dip]-NH2), for which a half-maximal response (EC50) required 300 nM.

Staying with this assay, now noted: FIG. 3 and FIG. 4.
For the compound DTHFPIAIFC-NH2 [Hep10], the “hepcidin activity of mini-hepcidins relative to Hep25” value is “quite active”.

The assay is the same for the next values; noted with them: concentration eliciting 50% of maximal loss of fluorescence generated by reference Hep25; 24 hours.
Compound `C[C@@H](O)[C@H](NC(=O)[C@@H](N)CC(=O)O)C(=O)N[C@@H](Cc1c[nH]cn1)C(=O)N[C@H](C(=O)N1CCC[C@H]1C(=O)N[C@@H](CCCNC(=N)N)C(=O)N[C@@H](CS)C(=O)N[C@@H](CCCNC(=N)N)C(=O)N[C@H](C(N)=O)C(c1ccccc1)c1ccccc1)C(c1ccccc1)c1ccccc1` [Pr42] (H-DTH[Dip]PRCR[Dip]-NH2; N-terminus assumed) displayed an EC50 of 30 nM. On the same count and under the same terms, with `CC[C@H](C)[C@H](NC(=O)[C@H](CS)NC(=O)[C@@H](NC(=O)[C@@H]1CCCN1C(=O)[C@H](Cc1ccccc1)NC(=O)[C@H](Cc1c[nH]cn1)NC(=O)[C@@H](NC(=O)[C@@H](N)CC(=O)O)[C@@H](C)O)[C@@H](C)CC)C(=O)N[C@@H](Cc1ccccc1)C(=O)N1CCC[C@H]1CC(=O)N1CCC[C@H]1C(=O)N[C@@H](CCCCN)C(N)=O` [Pr15] the figure was 150 nM. Same read-out and setting: with `CC[C@H](C)[C@H](NC(=O)[C@H](CS)NC(=O)[C@@H](NC(=O)[C@@H]1CCCN1C(=O)[C@@H](NC(=O)[C@H](Cc1c[nH]cn1)NC(=O)[C@@H](NC(=O)[C@@H](N)CC(=O)O)[C@@H](C)O)C(c1ccccc1)c1ccccc1)[C@@H](C)CC)C(=O)N[C@@H](Cc1ccccc1)C(N)=O` [F4Dpa] (H-DTH[Dip]PICIF-NH2; N-terminus assumed) the figure was 30 nM. In turn, `CC[C@H](C)[C@H](NC(=O)[C@H](CS)NC(=O)[C@@H](NC(=O)[C@@H]1CCCN1C(=O)[C@H](Cc1ccccc1)NC(=O)[C@H](Cc1c[nH]cn1)NC(=O)[C@@H](NC(=O)[C@@H](N)CC(=O)O)[C@@H](C)O)[C@@H](C)CC)C(=O)N[C@@H](Cc1ccccc1)C(=O)N1CCC[C@@H]1C(=O)N1CCC[C@H]1CC(=O)N[C@@H](CCCCN)C(N)=O` [Pr17] gave an EC50 of 300 nM. `CC[C@H](C)[C@H](NC(=O)[C@H](CS)NC(=O)[C@@H](NC(=O)[C@@H]1CCCN1C(=O)[C@H](Cc1ccccc1)NC(=O)[C@H](Cc1c[nH]cn1)NC(=O)[C@@H](NC(=O)[C@@H](N)CC(=O)O)[C@@H](C)O)[C@@H](C)CC)C(=O)N[C@@H](Cc1ccccc1)C(=O)N1CCC[C@@H]1C(=O)N1CCC[C@H]1CC(=O)N[C@@H](CCCNC(=N)N)C(N)=O` [Pr18]: the EC50 was 1000 nM. Same read-out and setting: with `C[C@@H](O)[C@H](NC(=O)[C@@H](N)CC(=O)O)C(=O)N[C@@H](Cc1c[nH]cn1)C(=O)N[C@H](C(=O)N1CCC[C@H]1C(=O)N[C@H](CCCNC(=N)N)C(=O)N[C@@H](CS)C(=O)N[C@H](CCCNC(=N)N)C(=O)N[C@H](C(N)=O)C(c1ccccc1)c1ccccc1)C(c1ccccc1)c1ccccc1` [Pr43] (H-DTH[Dip]P[dR]C[dR][Dip]-NH2) the figure was 200 nM.

The same assay, now with this note: concentration eliciting 50% of maximal loss of fluorescence generated by reference Hep25; 24 hours; read-out: EC50 (the source's name).
Regarding HFPICI-NH2 [Hep6], the DC50 is 1000 nM. As for `CC[C@H](C)[C@H](NC(=O)[C@H](CS)NC(=O)[C@@H](NC(=O)[C@@H]1CCCN1C(=O)[C@H](Cc1ccccc1)NC(=O)[C@H](Cc1c[nH]cn1)NC(=O)[C@@H](NC(=O)[C@@H](N)CC(=O)O)[C@@H](C)O)[C@@H](C)CC)C(=O)N[C@@H](Cc1cccc2ccccc12)C(N)=O` [F91Nal] (H-DTHFPICI[1Nal]-NH2; N-terminus assumed), the DC50 is 200 nM. Still for that read-out and setting: with DTHFPIC-NH2 [Hep7] the figure was greater than 10000 nM; with `CC[C@H](C)[C@@H]1NC(=O)[C@@H](NC(=O)[C@@H](NC(=O)[C@@H]2CCCN2C(=O)[C@H](Cc2ccccc2)NC(=O)[C@H](Cc2c[nH]cn2)NC(=O)[C@@H](NC(=O)[C@@H](N)CC(=O)O)[C@@H](C)O)[C@@H](C)CC)CSSC[C@@H](C(=O)N[C@@H](CCCCN)C(=O)N[C@H](C(=O)O)[C@@H](C)O)NC(=O)[C@@H]2CSSC[C@@H]3NC(=O)[C@@H]4CSSC[C@H](NC(=O)[C@H](Cc5ccccc5)NC1=O)C(=O)N[C@@H](CSSC[C@H](NC(=O)[C@H](CCCCN)NC(=O)[C@H](CO)NC(=O)[C@H](CCCNC(=N)N)NC(=O)[C@H](Cc1c[nH]cn1)NC3=O)C(=O)NCC(=O)N[C@@H](CCSC)C(=O)N2)C(=O)NCC(=O)N4` [Hep25, reference compound], 10 nM. `CC[C@H](C)[C@H](NC(=O)[C@H](CS)NC(=O)[C@@H](NC(=O)[C@@H]1CCCN1C(=O)[C@H](Cc1ccccc1)NC(=O)[C@H](Cc1c[nH]cn1)NC(=O)[C@@H](NC(=O)[C@@H](N)CC(=O)O)[C@@H](C)O)[C@@H](C)CC)C(=O)N[C@@H](Cc1ccc(-c2ccccc2)cc1)C(N)=O` [F9Bip] (H-DTHFPICI[Bip]-NH2; N-terminus assumed): the DC50 was determined as 150 nM.

Turning to DTHFPICI-NH2 [Hep8], the DC50 turned out to be 2000 nM. Still for that read-out and setting: with `CC[C@H](C)[C@H](NC(=O)[C@H](CS)NC(=O)[C@@H](NC(=O)[C@@H]1CCCN1C(=O)[C@H](Cc1ccccc1)NC(=O)[C@H](Cc1c[nH]cn1)NC(=O)[C@@H](NC(=O)[C@@H](N)CC(=O)O)[C@@H](C)O)[C@@H](C)CC)C(=O)N[C@H](CC(N)=O)Cc1ccccc1` [F9bhPhe] the figure was 150 nM; with `CC[C@H](C)[C@H](NC(=O)[C@H](CS)NC(=O)[C@@H](NC(=O)[C@@H]1CCCN1C(=O)[C@H](Cc1ccccc1)NC(=O)[C@H](Cc1c[nH]cn1)NC(=O)[C@@H](NC(=O)[C@@H](N)CC(=O)O)[C@@H](C)O)[C@@H](C)CC)C(=O)N[C@H](CC(=O)N1CCC[C@@H]1C(=O)N1CCC[C@H]1C(=O)N[C@@H](CCCNC(=N)N)C(N)=O)Cc1ccccc1` [Pr20] (H-DTHFPICI[β3hF][dP]PR-NH2), 200 nM; with HFPICIF-NH2 [Hep7ΔDT], 700 nM. Still for that read-out and setting: with DTHFPIAIFC-NH2 [Hep10] the figure was 100 nM. Turning to `CC[C@H](C)[C@H](NC(=O)[C@H](CS)NC(=O)[C@@H](NC(=O)[C@@H]1CCCN1C(=O)[C@H](Cc1ccccc1)NC(=O)[C@H](Cc1c[nH]cn1)NC(=O)[C@@H](NC(=O)[C@@H](N)CC(=O)O)[C@@H](C)O)[C@@H](C)CC)C(=O)N[C@H](C(N)=O)C(c1ccccc1)c1ccccc1` [F9Dpa] (H-DTHFPICI[Dip]-NH2), the DC50 was 70 nM.

`CC[C@H](C)[C@H](NC(=O)[C@H](CSC(C)(C)C)NC(=O)[C@@H](NC(=O)[C@@H]1CCCN1C(=O)[C@H](C)NC(=O)[C@H](Cc1c[nH]cn1)NC(=O)[C@@H](NC(=O)[C@@H](N)CC(=O)O)[C@@H](C)O)[C@@H](C)CC)C(=O)N[C@@H](Cc1ccccc1)C(N)=O` [Hep9C7-tBut] (H-DTHAPIC(tBu)IF-NH2): the DC50 was greater than 10000 nM. Same read-out and setting: the same measure for `CC[C@H](C)[C@H](NC(=O)[C@@H]1CCCN1C(=O)[C@@H](N)Cc1ccccc1)C(=O)N[C@@H](CS)C(N)=O` [Hep4] (H-FPIC-NH2): greater than 10000 nM; for DTHFPIAIF-NH2 [Hep9-C7A]: greater than 10000 nM; for `CC[C@H](C)[C@H](NC(=O)[C@H](CS)NC(=O)[C@@H](NC(=O)[C@@H]1CCCN1C(=O)[C@H](Cc1cccc2ccccc12)NC(=O)[C@H](Cc1c[nH]cn1)NC(=O)[C@@H](NC(=O)[C@@H](N)CC(=O)O)[C@@H](C)O)[C@@H](C)CC)C(=O)N[C@@H](Cc1ccccc1)C(N)=O` [F4 1Nal] (H-DTH[1Nal]PICIF-NH2; N-terminus assumed): 110 nM. On the same count and under the same terms, with `CC[C@H](C)[C@H](NC(=O)[C@H](CS)NC(=O)[C@@H](NC(=O)[C@@H]1C[C@@H]2CCCC[C@@H]2N1C(=O)[C@@H](NC(=O)[C@H](Cc1c[nH]cn1)NC(=O)[C@@H](NC(=O)[C@@H](N)CC(=O)O)[C@@H](C)O)C(c1ccccc1)c1ccccc1)[C@@H](C)CC)C(=O)N[C@H](C(N)=O)C(c1ccccc1)c1ccccc1` [Pr45] (H-DTH[Dip][Oic]ICI[Dip]-NH2; N-terminus assumed) the figure was 150 nM; with DTHFPISIF-NH2 [Hep9-C7S], greater than 10000 nM.

On to `CC[C@H](C)[C@H](NC(=O)[C@H](CCS)NC(=O)[C@@H](NC(=O)[C@@H]1CCCN1C(=O)[C@H](Cc1ccccc1)NC(=O)[C@H](Cc1c[nH]cn1)NC(=O)[C@@H](NC(=O)[C@@H](N)CC(=O)O)[C@@H](C)O)[C@@H](C)CC)C(=O)N[C@@H](Cc1ccccc1)C(N)=O` [homoC], for which the DC50 is 900 nM.

The same assay, now with this note: flow-cytometry assay of ferroportin-GFP internalization, FIG. 3.
As for DTHFPIAIFC-NH2 [Hep10], the “potency relative to Hep25 on a mass basis (times less potent)” value is on record as “about 4 times” and the “potency relative to Hep25 on a molar basis (times less potent)” value is given as “about 10 times”.
